The supplement of paper PMC10307832

Assays:
Assay in all cases: relative viability (nuclei count vs DMSO), 5 days (fraction); higher = more cells survive
[1] = compound: Cc1ccc(NC(=O)c2ccc(CN3CCN(C)CC3)cc2)cc1Nc1nc(-c2cccnc2)cs1 [Masitinib] + CC(C)C[C@H](NC(=O)[C@H](Cc1ccccc1)NC(=O)c1cnccn1)B(O)O [Bortezomib] (partner 0.002 µM)
Outline: (§1)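 After 5 days of treatment, lung cancer cells in 1536-well plates were fixed and stained in a single step (final 0.05% Triton X-100, 1% formaldehyde, 1 ug/ml Hoechst) and their nuclei counted on 4× images. Treatment had been applied by pin tool the day after seeding as one drug alone or as a fixed anchor-drug dose with five library-drug doses (not always all listed) in √10 steps. Relative viability is the nuclei count of treated wells divided by that of vehicle wells, and values are medians of duplicate plates.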

[2] = compound: CC1=CC(=CC=C1)NC2=NC(=CS2)C3=CC=NC=C3 + Cc1nc(NC(=O)N2CCC[C@H]2C(N)=O)sc1-c1ccnc(C(C)(C)C(F)(F)F)c1 [Alpelisib] (partner 2 µM)
Outline: as §1

[3] = compound: Cc1ccc(NC(=O)c2ccc(CN3CCN(C)CC3)cc2)cc1Nc1nc(-c2cccnc2)cs1 [Masitinib] + C[C@]1(O)C[C@@H](c2nc(-c3ccc4ccc(-c5ccccc5)nc4c3)c3c(N)nccn32)C1 [Linsitinib] (partner 1 µM)
Outline: as §1

[4] = compound: CC1=CC(=CC=C1)NC2=NC(=CS2)C3=CC=NC=C3 + O=C(c1cc(Cc2n[nH]c(=O)c3ccccc23)ccc1F)N1CCN(C(=O)C2CC2)CC1 [Olaparib] (partner 8 µM)
Outline: as §1

Cell Line	relative viability ([1]; first compound 0.01 µM)	relative viability ([1]; first compound 0.03162 µM)	relative viability ([1]; first compound 0.1 µM)	relative viability ([1]; first compound 0.3162 µM)	relative viability ([1]; first compound 1 µM)	relative viability ([2]; first compound 0.08 µM)	relative viability ([2]; first compound 0.253 µM)	relative viability ([2]; first compound 0.8 µM)	relative viability ([2]; first compound 2.53 µM)	relative viability ([2]; first compound 8 µM)	relative viability ([3]; first compound 0.01 µM)	relative viability ([3]; first compound 0.03162 µM)	relative viability ([3]; first compound 0.1 µM)	relative viability ([3]; first compound 0.3162 µM)	relative viability ([3]; first compound 1 µM)	relative viability ([4]; first compound 0.08 µM)	relative viability ([4]; first compound 0.253 µM)	relative viability ([4]; first compound 0.8 µM)	relative viability ([4]; first compound 2.53 µM)	relative viability ([4]; first compound 8 µM)
HCC-44	0.765	0.778	0.854	0.773	0.857	0.601	0.497	0.56	0.644	0.608	0.567	0.487	0.648	0.568	0.666	0.952	0.791	0.764	0.668	0.646
HCC-827	0.842	1.04	1.03	1.09	1.08	0.946	0.913	0.907	1.03	0.836	1.03	0.969	0.976	0.935	0.935	0.639	0.635	0.661	0.717	0.654
NCI-H2405	0.929	0.878	0.879	0.944	0.948	0.679	0.799	0.578	0.87	0.699	0.96	1.01	0.945	0.882	0.9	0.751	0.75	0.677		0.723
PC-3 [JPC-3]	0.833	0.936	0.784	0.878	0.841	0.95	0.939	0.845	0.875	0.84	0.969	1	0.951	0.961	0.964	0.926		1.01	1.07	0.924
NCI-H1666	0.71	0.726	0.854	0.555	0.612	0.44	0.597	0.447	0.472	0.298	0.806	0.774	0.846	0.781	0.718	0.677	0.771	0.737	0.766	0.824
HARA	1.05	1.09	1.18	1.17	1.04	0.621	0.513	0.596	0.724	0.542	0.894	1.02	1.08	0.917	1.06	0.936	0.701	0.524	0.445	0.839
NCI-H1395						0.838	0.909	1.23	1.01	0.992	1.05	1.09	1.09	0.959	1.02	0.439		0.478	0.46	0.43
NCI-H1650	0.198	0.172	0.186	0.215	0.212											0.539	0.901	0.525	0.488	0.432
